ChEMBL document CHEMBL3232804, “Synthesis and evaluation of new diaryl ether and quinoline hybrids as potential antiplasmodial and antimicrobial agents” (Bioorg Med Chem Lett, 2014)
In brackets after ≈: the same amount, converted by molar mass.

What was measured:
Plasmodium falciparum [1] = assay: Antiplasmodial activity against chloroquine-sensitive Plasmodium falciparum 3D7 infected after 72 hrs by Malaria SYBR Green I-staining based fluorescence assay; format: functional, organism-based; details: 3D7, 72 h
Plasmodium falciparum [2] = assay: Antiplasmodial activity against chloroquine-resistant Plasmodium falciparum K1 infected after 72 hrs by Malaria SYBR Green I-staining based fluorescence assay; format: functional, organism-based; details: K1, 72 h
[3] = Selectivity index, ratio of IC50 for african green monkey Vero cells to IC50 for chloroquine-sensitive Plasmodium falciparum 3D7; format: toxicity, cell-based; details: read-out: Ratio IC50
Escherichia coli = assay: Antimicrobial activity against Escherichia coli ATCC 9637 after 24 hrs by standard broth microdilution method; format: functional; details: ATCC 9637, 24 h
Pseudomonas aeruginosa = assay: Antimicrobial activity against Pseudomonas aeruginosa ATCC BAA-427 after 24 hrs by standard broth microdilution method; format: functional; details: ATCC BAA-427, 24 h
Staphylococcus aureus = assay: Antimicrobial activity against Staphylococcus aureus ATCC 25923 after 24 hrs by standard broth microdilution method; format: functional; details: ATCC 25923, 24 h
Klebsiella pneumoniae = assay: Antimicrobial activity against Klebsiella pneumoniae ATCC 27736 after 24 hrs by standard broth microdilution method; format: functional; details: ATCC 27736, 24 h
Candida albicans = assay: Antifungal activity against Candida albicans clinical isolate after 24 to 48 hrs by standard broth microdilution method; format: functional
Cryptococcus neoformans = assay: Antifungal activity against Cryptococcus neoformans clinical isolate after 24 to 48 hrs by standard broth microdilution method; format: functional
Sporothrix schenckii = assay: Antifungal activity against Sporothrix schenckii clinical isolate after 72 to 96 hrs by standard broth microdilution method; format: functional
[4] = tested on: Trichophyton mentagrophytes; assay: Antifungal activity against Trichophyton mentagrophytes clinical isolate after 72 to 96 hrs by standard broth microdilution method; format: functional
Aspergillus fumigatus = assay: Antifungal activity against Aspergillus fumigatus clinical isolate after 72 to 96 hrs by standard broth microdilution method; format: functional
Candida parapsilosis = assay: Antifungal activity against Candida parapsilosis ATCC […] after 72 to 96 hrs by standard broth microdilution method; format: functional; details: Lodderomyces parapsilosis

Row | Compound | IC50 (Plasmodium falciparum [1]) | IC50 (Plasmodium falciparum [2]) | selectivity ratio [3] | MIC (Escherichia coli) | MIC (Pseudomonas aeruginosa) | MIC (Staphylococcus aureus) | MIC (Klebsiella pneumoniae) | MIC (Candida albicans) | MIC (Cryptococcus neoformans) | MIC (Sporothrix schenckii) | MIC [4] | MIC (Aspergillus fumigatus) | MIC (Candida parapsilosis)
1 | COC(=O)/C(C)=C/c1ccc(Oc2ccccc2N/C(=N/c2cccc(Cl)c2)NCCCNc2ccnc3cc(Cl)ccc23)cc1 | 20.3 nM | 292 nM | 368 | 6.25 µg/mL (≈ 9.55 µM) | > 50 µg/mL | 3.12 µg/mL (≈ 4.77 µM) | 3.12 µg/mL (≈ 4.77 µM) | 50 µg/mL (≈ 76.4 µM) | > 50 µg/mL | 50 µg/mL (≈ 76.4 µM) | 50 µg/mL (≈ 76.4 µM) | > 50 µg/mL | > 50 µg/mL
2 | Clc1cccc(/N=C(\NCCCCNc2ccnc3cc(Cl)ccc23)Nc2ccc(Oc3cc(Cl)ccc3Cl)cc2)c1 | 126 nM | > 782 nM | 26.3 | 6.25 µg/mL (≈ 9.77 µM) | > 50 µg/mL | 6.25 µg/mL (≈ 9.77 µM) | 50 µg/mL (≈ 78.2 µM) | 3.12 µg/mL (≈ 4.88 µM) | 12.5 µg/mL (≈ 19.5 µM) | 3.12 µg/mL (≈ 4.88 µM) | 6.25 µg/mL (≈ 9.77 µM) | 25 µg/mL (≈ 39.1 µM) | 6.25 µg/mL (≈ 9.77 µM)
3 | Clc1cccc(/N=C(\NCCCNc2ccnc3cc(Cl)ccc23)Nc2ccccc2Oc2cc(Cl)ccc2Cl)c1 | 87.7 nM | 77.7 nM | 18.7 | 6.25 µg/mL (≈ 9.99 µM) | > 50 µg/mL | 1.56 µg/mL (≈ 2.49 µM) | > 50 µg/mL | 25 µg/mL (≈ 40 µM) | 50 µg/mL (≈ 80 µM) | 50 µg/mL (≈ 80 µM) | 50 µg/mL (≈ 80 µM) | > 50 µg/mL | 50 µg/mL (≈ 80 µM)
4 | Clc1ccc(/N=C(\NCCCCNc2ccnc3cc(Cl)ccc23)Nc2ccc(Oc3cc(Cl)ccc3Cl)cc2)cc1 | 29 nM | 209 nM | 756 | 6.25 µg/mL (≈ 9.77 µM) | > 50 µg/mL | 6.25 µg/mL (≈ 9.77 µM) | 12.5 µg/mL (≈ 19.5 µM) | 12.5 µg/mL (≈ 19.5 µM) | 12.5 µg/mL (≈ 19.5 µM) | 6.25 µg/mL (≈ 9.77 µM) | 12.5 µg/mL (≈ 19.5 µM) | 25 µg/mL (≈ 39.1 µM) | 12.5 µg/mL (≈ 19.5 µM)
5 | COc1ccc(Oc2ccc(N/C(=N/c3ccc(Cl)cc3)NCCNc3ccnc4cc(Cl)ccc34)cc2)cc1 | 69 nM | 105 nM | 122 | 6.25 µg/mL (≈ 10.9 µM) | > 50 µg/mL | 6.25 µg/mL (≈ 10.9 µM) | 12.5 µg/mL (≈ 21.8 µM) | 12.5 µg/mL (≈ 21.8 µM) | 25 µg/mL (≈ 43.7 µM) | 6.25 µg/mL (≈ 10.9 µM) | 12.5 µg/mL (≈ 21.8 µM) | 25 µg/mL (≈ 43.7 µM) | 12.5 µg/mL (≈ 21.8 µM)
6 | Clc1ccc(/N=C(\NCCNc2ccnc3cc(Cl)ccc23)Nc2ccc(Oc3cc(Cl)ccc3Cl)cc2)cc1 | 44 nM | 54.1 nM | 189 | 6.25 µg/mL (≈ 10.2 µM) | > 50 µg/mL | 25 µg/mL (≈ 40.9 µM) | > 50 µg/mL | 6.25 µg/mL (≈ 10.2 µM) | 6.25 µg/mL (≈ 10.2 µM) | 3.12 µg/mL (≈ 5.1 µM) | 6.25 µg/mL (≈ 10.2 µM) | 6.25 µg/mL (≈ 10.2 µM) | 12.5 µg/mL (≈ 20.4 µM)
7 | COC(=O)/C(C)=C/c1ccc(Oc2ccccc2N/C(=N/c2ccccc2)NCCCNc2ccnc3cc(Cl)ccc23)cc1 | 174 nM | 161 nM | 37.2 | > 50 µg/mL | > 50 µg/mL | > 50 µg/mL | > 50 µg/mL | > 50 µg/mL | > 50 µg/mL | > 50 µg/mL | > 50 µg/mL | > 50 µg/mL | > 50 µg/mL
8 | Clc1ccc(/N=C(\NCCCNc2ccnc3cc(Cl)ccc23)Nc2ccccc2Oc2cc(Cl)ccc2Cl)cc1 | 87.2 nM | > 800 nM | 112 | 12.5 µg/mL (≈ 20 µM) | > 50 µg/mL | 6.25 µg/mL (≈ 9.99 µM) | > 50 µg/mL | 6.25 µg/mL (≈ 9.99 µM) | 25 µg/mL (≈ 40 µM) | 25 µg/mL (≈ 40 µM) | > 50 µg/mL | > 50 µg/mL | 50 µg/mL (≈ 80 µM)
9 | Clc1ccc(Cl)c(Oc2ccccc2N/C(=N/c2ccccc2)NCCCCNc2ccnc3cc(Cl)ccc23)c1 | 194 nM | 94 nM | 43.5 | 25 µg/mL (≈ 41.3 µM) | > 50 µg/mL | 12.5 µg/mL (≈ 20.7 µM) | > 50 µg/mL | 50 µg/mL (≈ 82.6 µM) | > 50 µg/mL | 25 µg/mL (≈ 41.3 µM) | 50 µg/mL (≈ 82.6 µM) | > 50 µg/mL | > 50 µg/mL
10 | Clc1ccc(Cl)c(Oc2ccc(N/C(=N/c3ccccc3)NCCCNc3ccnc4cc(Cl)ccc34)cc2)c1 | 23.1 nM | > 846 nM | 164 | 3.12 µg/mL (≈ 5.28 µM) | > 50 µg/mL | 12.5 µg/mL (≈ 21.2 µM) | 25 µg/mL (≈ 42.3 µM) | 12.5 µg/mL (≈ 21.2 µM) | 6.25 µg/mL (≈ 10.6 µM) | 3.12 µg/mL (≈ 5.28 µM) | 6.25 µg/mL (≈ 10.6 µM) | 6.25 µg/mL (≈ 10.6 µM) | 6.25 µg/mL (≈ 10.6 µM)
11 | COC(=O)/C(C)=C/c1ccc(Oc2ccc(N/C(=N/c3ccccc3)NCCCCNc3ccnc4cc(Cl)ccc34)cc2)cc1 | 94.4 nM | 76.7 nM | 91.8 | 25 µg/mL (≈ 39.4 µM) | > 50 µg/mL | 50 µg/mL (≈ 78.8 µM) | 50 µg/mL (≈ 78.8 µM) | 25 µg/mL (≈ 39.4 µM) | 25 µg/mL (≈ 39.4 µM) | 25 µg/mL (≈ 39.4 µM) | 25 µg/mL (≈ 39.4 µM) | > 50 µg/mL | 25 µg/mL (≈ 39.4 µM)
12 | COc1ccc(Oc2ccccc2N/C(=N/c2cccc(Cl)c2)NCCCCNc2ccnc3cc(Cl)ccc23)cc1 | 37.6 nM | > 1000 nM | 176 | 12.5 µg/mL (≈ 20.8 µM) | > 50 µg/mL | 3.12 µg/mL (≈ 5.2 µM) | 50 µg/mL (≈ 83.3 µM) | 12.5 µg/mL (≈ 20.8 µM) | 50 µg/mL (≈ 83.3 µM) | 12.5 µg/mL (≈ 20.8 µM) | 12.5 µg/mL (≈ 20.8 µM) | > 50 µg/mL | 50 µg/mL (≈ 83.3 µM)
13 | COc1ccc(Oc2ccccc2N/C(=N/c2cccc(Cl)c2)NCCNc2ccnc3cc(Cl)ccc23)cc1 | 43.4 nM | 201 nM | 208 | 6.25 µg/mL (≈ 10.9 µM) | > 50 µg/mL | 6.25 µg/mL (≈ 10.9 µM) | 12.5 µg/mL (≈ 21.8 µM) | 6.25 µg/mL (≈ 10.9 µM) | 12.5 µg/mL (≈ 21.8 µM) | > 50 µg/mL | 12.5 µg/mL (≈ 21.8 µM) | 12.5 µg/mL (≈ 21.8 µM) | > 50 µg/mL
14 | COC(=O)/C(C)=C/c1ccc(Oc2ccc(N/C(=N/c3cccc(Cl)c3)NCCNc3ccnc4cc(Cl)ccc34)cc2)cc1 | 48.9 nM | 123 nM | 71.7 | 12.5 µg/mL (≈ 19.5 µM) | 50 µg/mL (≈ 78.1 µM) | 6.25 µg/mL (≈ 9.76 µM) | 12.5 µg/mL (≈ 19.5 µM) | 50 µg/mL (≈ 78.1 µM) | 50 µg/mL (≈ 78.1 µM) | 25 µg/mL (≈ 39 µM) | 25 µg/mL (≈ 39 µM) | > 50 µg/mL | 50 µg/mL (≈ 78.1 µM)
15 | COc1ccc(Oc2ccc(N/C(=N/c3cccc(Cl)c3)NCCCNc3ccnc4cc(Cl)ccc34)cc2)cc1 | 49.6 nM | 236 nM | 158 | 6.25 µg/mL (≈ 10.7 µM) | > 50 µg/mL | 6.25 µg/mL (≈ 10.7 µM) | 12.5 µg/mL (≈ 21.3 µM) | 6.25 µg/mL (≈ 10.7 µM) | 25 µg/mL (≈ 42.6 µM) | 6.25 µg/mL (≈ 10.7 µM) | 6.25 µg/mL (≈ 10.7 µM) | 25 µg/mL (≈ 42.6 µM) | 12.5 µg/mL (≈ 21.3 µM)
16 | COC(=O)/C(C)=C/c1ccc(Oc2ccccc2N/C(=N/c2cccc(Cl)c2)NCCCCNc2ccnc3cc(Cl)ccc23)cc1 | 31.2 nM | > 800 nM | 80.7 | 12.5 µg/mL (≈ 18.7 µM) | > 50 µg/mL | 3.12 µg/mL (≈ 4.67 µM) | > 50 µg/mL | 50 µg/mL (≈ 74.8 µM) | > 50 µg/mL | > 50 µg/mL | > 50 µg/mL | > 50 µg/mL | > 50 µg/mL
17 | COc1ccc(Oc2ccc(N/C(=N/c3ccc(Cl)cc3)NCCCCNc3ccnc4cc(Cl)ccc34)cc2)cc1 | 33.7 nM | 138 nM | 88.7 | 6.25 µg/mL (≈ 10.4 µM) | > 50 µg/mL | 6.25 µg/mL (≈ 10.4 µM) | 25 µg/mL (≈ 41.6 µM) | 25 µg/mL (≈ 41.6 µM) | 25 µg/mL (≈ 41.6 µM) | 12.5 µg/mL (≈ 20.8 µM) | 12.5 µg/mL (≈ 20.8 µM) | 25 µg/mL (≈ 41.6 µM) | 6.25 µg/mL (≈ 10.4 µM)
18 | Clc1ccc(Cl)c(Oc2ccccc2N/C(=N/c2ccccc2)NCCCNc2ccnc3cc(Cl)ccc23)c1 | 74.7 nM | 176 nM | 116 | 12.5 µg/mL (≈ 21.2 µM) | > 50 µg/mL | 3.12 µg/mL (≈ 5.28 µM) | 12.5 µg/mL (≈ 21.2 µM) | 12.5 µg/mL (≈ 21.2 µM) | 25 µg/mL (≈ 42.3 µM) | 12.5 µg/mL (≈ 21.2 µM) | 12.5 µg/mL (≈ 21.2 µM) | > 50 µg/mL | 50 µg/mL (≈ 84.6 µM)
